± gives the standard deviation of the averaged measurements.
Experiments:
Assay in all cases: level (log10 ratio to DMSO vehicle control); higher = higher biomarker level / cell amount than vehicle control
[1] = compound: C=C(C)C(=O)OCCC(F)(F)C(F)(F)C(F)(F)C(F)(F)C(F)(F)C(F)(F)F [6:2 Fluorotelomer methacrylate]; settings: in DMSO
Method: (§1)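 BioMAP Diversity Plus panel of 12 human primary cell co-culture systems (3C, 4H, LPS, SAg, BT, BF4T, BE3C, CASM3C, HDF3CGF, KF3CT, MyoF, Mphg). Compounds were added 1 h before stimulation and left for 24 h (MyoF 48 h; BT 72 h for soluble read-outs or 6 d for IgG). Biomarkers were read by ELISA, cytotoxicity by SRB, PBMC viability and proliferation by Alamar Blue. Each well value was divided by the mean of 8 DMSO control wells on the same plate and log10 transformed; duplicate blinded samples were tested at 4 concentrations.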

[2] = compound: C=CC(=O)OCC(F)(F)C(F)(F)C(F)(F)COC(=O)C=C [1H,1H,5H,5H-Perfluoro-1,5-pentanediol diacrylate]; settings: 6700 nM; in DMSO
Method: as §1

[3] = compound: COC(=O)C(F)(F)C(F)(F)OC(F)(C(F)(F)F)C(F)(F)OC(F)=C(F)F [Methyl perfluoro(3-(1-ethenyloxypropan-2-yloxy)propanoate)]; settings: in DMSO
Method: as §1

[4] = compound: FC(F)(F)C(F)(F)C(F)(F)C(F)(F)C(F)(F)C(F)(F)C(F)(F)I [1-Iodopentadecafluoroheptane]; settings: in DMSO
Method: as §1

[5] = compound: FC(F)(F)C(F)(F)C(F)(F)C(F)(F)C(F)(F)C(F)(F)CC1CO1 [3-(Perfluorohexyl)-1,2-epoxypropane]; settings: in DMSO
Method: as §1

[6] = compound: FC(F)(F)C(F)(F)C(F)(F)CC1CO1 [1H,1H-Heptafluorobutyl epoxide]; settings: in DMSO
Method: as §1

Heptafluorobutyl iodide = compound: FC(F)(F)C(F)(F)C(F)(F)CI [Heptafluorobutyl iodide]; settings: in DMSO
Method: as §1

[7] = compound: FC(F)(F)C(F)(F)CNCC(F)(F)C(F)(F)F [Bis(1H,1H-perfluoropropyl)amine]; settings: in DMSO
Method: as §1

Octafluoroadipamide = compound: NC(=O)C(F)(F)C(F)(F)C(F)(F)C(F)(F)C(N)=O [Octafluoroadipamide]; settings: in DMSO
Method: as §1

Nonafluoropentanamide = compound: NC(=O)C(F)(F)C(F)(F)C(F)(F)C(F)(F)F [Nonafluoropentanamide]; settings: in DMSO
Method: as §1

[8] = compound: NC(=O)C(F)(F)C(F)(F)C(F)(F)C(F)F; settings: in DMSO
Method: as §1

[9] = compound: NS(=O)(=O)C(F)(F)C(F)(F)C(F)(F)C(F)(F)C(F)(F)C(F)(F)F [Perfluorohexanesulfonamide]; settings: in DMSO
Method: as §1

[10] = compound: O=C(O)C(F)(F)C(F)(F)C(F)(F)C(F)(F)C(F)(F)C(F)(F)C(F)(F)C(F)(F)C(F)(F)C(F)F [11-H-Perfluoroundecanoic acid]; settings: in DMSO
Method: as §1

[11] = compound: O=C(O)C=CC(F)(C(F)(F)F)C(F)(F)F [3-(Perfluoroisopropyl)-2-propenoic acid]; settings: in DMSO
Method: as §1

[12] = compound: O=S(=O)(Cl)C(F)(F)C(F)(F)C(F)(F)C(F)(F)C(F)(F)C(F)(F)C(F)(F)C(F)(F)F [Perfluoro-1-octanesulfonyl chloride]; settings: in DMSO
Method: as §1

[13] = compound: O=S(=O)(F)C(F)(F)C(F)(F)C(F)(F)C(F)(F)C(F)(F)C(F)(F)C(F)(F)C(F)(F)F [Perfluorooctanesulfonyl fluoride]; settings: in DMSO
Method: as §1

[14] = compound: O=S(=O)(O)C(F)(F)C(F)(F)C(F)(F)C(F)(F)C(F)(F)C(F)(F)C(F)(F)C(F)(F)C(F)(F)C(F)(F)F [Sodium perfluorodecanesulfonate]; settings: in DMSO
Method: as §1

[15] = compound: O=S(=O)(O)CCC(F)(F)C(F)(F)C(F)(F)C(F)(F)C(F)(F)C(F)(F)F [6:2 Fluorotelomer sulfonic acid]; settings: in DMSO
Method: as §1

Hexafluoroamylene glycol = compound: OCC(F)(F)C(F)(F)C(F)(F)CO [Hexafluoroamylene glycol]; settings: in DMSO
Method: as §1

LPS:CD142/Tissue Factor
level (log10) ([1]; 6700 nM): 0.007 ± 0.09
level (log10) ([1]; 20000 nM): 0.0765 ± 0.043
level (log10) ([1]; 60000 nM): 0.0165 ± 0.098
level (log10) [2]: -0.107 ± 0.03
level (log10) ([3]; 6700 nM): -0.0235 ± 0.00071
level (log10) ([3]; 20000 nM): 0.009 ± 0.011
level (log10) ([4]; 6700 nM): 0.0105 ± 0.07
level (log10) ([4]; 20000 nM): 0.036 ± 0.02
level (log10) ([5]; 6700 nM): -0.023 ± 0.0057
level (log10) ([5]; 20000 nM): -0.0095 ± 0.032
level (log10) ([5]; 60000 nM): 0.0015 ± 0.039
level (log10) ([6]; 6700 nM): 0.011 ± 0.014
level (log10) ([6]; 20000 nM): 0.0085 ± 0.018
level (log10) ([6]; 60000 nM): 0.015 ± 0.0085
level (log10) (Heptafluorobutyl iodide; 6700 nM): -0.046 ± 0.1
level (log10) (Heptafluorobutyl iodide; 20000 nM): -0.013 ± 0.082
level (log10) (Heptafluorobutyl iodide; 60000 nM): 0.0295 ± 0.043
level (log10) ([7]; 6700 nM): 0.019 ± 0.073
level (log10) ([7]; 20000 nM): -0.007 ± 0.099
level (log10) ([7]; 60000 nM): 0.0095 ± 0.13
level (log10) (Octafluoroadipamide; 6700 nM): -0.0225 ± 0.077
level (log10) (Octafluoroadipamide; 20000 nM): -0.004 ± 0.025
level (log10) (Octafluoroadipamide; 60000 nM): 0.057 ± 0.025
level (log10) (Nonafluoropentanamide; 6700 nM): 0.0085 ± 0.019
level (log10) (Nonafluoropentanamide; 20000 nM): 0.0165 ± 0.0078
level (log10) (Nonafluoropentanamide; 60000 nM): -0.013 ± 0.017
level (log10) ([8]; 6700 nM): -0.0215 ± 0.00071
level (log10) ([8]; 20000 nM): 0.005 ± 0.0028
level (log10) ([8]; 60000 nM): -0.007 ± 0.0014
level (log10) ([9]; 6700 nM): 0.0095 ± 0.025
level (log10) ([9]; 20000 nM): 0.012 ± 0.0085
level (log10) ([9]; 60000 nM): 0.022 ± 0.0071
level (log10) ([10]; 6700 nM): 0.012 ± 0.034
level (log10) ([10]; 20000 nM): -0.033 ± 0.041
level (log10) ([11]; 6700 nM): 0.0105 ± 0.0078
level (log10) ([11]; 20000 nM): -0.021 ± 0.025
level (log10) ([11]; 60000 nM): 0.006 ± 0.021
level (log10) ([12]; 6700 nM): -0.023 ± 0.055
level (log10) ([12]; 20000 nM): 0.0075 ± 0.0078
level (log10) ([12]; 60000 nM): 0.11 ± 0.0092
level (log10) ([13]; 6700 nM): -0.0015 ± 0.0064
level (log10) ([13]; 20000 nM): 0.018 ± 0.011
level (log10) ([13]; 60000 nM): -0.0065 ± 0.019
level (log10) ([14]; 1500 nM): -0.0155 ± 0.043
level (log10) ([14]; 4400 nM): -0.011 ± 0.021
level (log10) ([14]; 13000 nM): -0.06 ± 0.0042
level (log10) ([14]; 40000 nM): -0.177 ± 0.1
level (log10) ([15]; 6700 nM): -0.0015 ± 0.064
level (log10) ([15]; 20000 nM): 0.02 ± 0.0085
level (log10) ([15]; 60000 nM): 0.0275 ± 0.026
level (log10) (Hexafluoroamylene glycol; 6700 nM): 0.0025 ± 0.087
level (log10) (Hexafluoroamylene glycol; 20000 nM): 0.041 ± 0.081
level (log10) (Hexafluoroamylene glycol; 60000 nM): 0.021 ± 0.082

HDF3CGF:Proliferation 72hr
level (log10) ([1]; 6700 nM): -0.0385 ± 0.035
level (log10) ([1]; 20000 nM): -0.0525 ± 0.015
level (log10) ([1]; 60000 nM): -0.0545 ± 0.0021
level (log10) [2]: -0.689 ± 0.0099
level (log10) ([3]; 6700 nM): 0.076 ± 0.018
level (log10) ([3]; 20000 nM): -0.163 ± 0.079
level (log10) ([4]; 6700 nM): -0.0275 ± 0.005
level (log10) ([4]; 20000 nM): -0.135 ± 0.02
level (log10) ([5]; 6700 nM): -0.014 ± 0.052
level (log10) ([5]; 20000 nM): -0.0355 ± 0.049
level (log10) ([5]; 60000 nM): 0 ± 0.069
level (log10) ([6]; 6700 nM): -0.0905 ± 0.044
level (log10) ([6]; 20000 nM): -0.0925 ± 0.047
level (log10) ([6]; 60000 nM): -0.0225 ± 0.13
level (log10) (Heptafluorobutyl iodide; 6700 nM): 0.0025 ± 0.0064
level (log10) (Heptafluorobutyl iodide; 20000 nM): -0.012 ± 0.0099
level (log10) (Heptafluorobutyl iodide; 60000 nM): -0.0085 ± 0.039
level (log10) ([7]; 6700 nM): 0.002 ± 0.041
level (log10) ([7]; 20000 nM): -0.008
level (log10) ([7]; 60000 nM): 0.028 ± 0.038
level (log10) (Octafluoroadipamide; 6700 nM): -0.041 ± 0.052
level (log10) (Octafluoroadipamide; 20000 nM): 0.0825 ± 0.05
level (log10) (Octafluoroadipamide; 60000 nM): -0.0115 ± 0.029
level (log10) (Nonafluoropentanamide; 6700 nM): -0.0375 ± 0.005
level (log10) (Nonafluoropentanamide; 20000 nM): -0.0485 ± 0.019
level (log10) (Nonafluoropentanamide; 60000 nM): -0.048 ± 0.028
level (log10) ([8]; 6700 nM): -0.0005 ± 0.046
level (log10) ([8]; 20000 nM): -0.0245 ± 0.06
level (log10) ([8]; 60000 nM): -0.0205 ± 0.037
level (log10) ([9]; 6700 nM): 0.058 ± 0.03
level (log10) ([9]; 20000 nM): 0.0595 ± 0.0078
level (log10) ([9]; 60000 nM): -0.267 ± 0.028
level (log10) ([10]; 6700 nM): -0.253 ± 0.048
level (log10) ([10]; 20000 nM): -0.443 ± 0.0028
level (log10) ([11]; 6700 nM): -0.033 ± 0.083
level (log10) ([11]; 20000 nM): 0.0165 ± 0.086
level (log10) ([11]; 60000 nM): 0.04 ± 0.073
level (log10) ([12]; 6700 nM): 0.126 ± 0.04
level (log10) ([12]; 20000 nM): 0.155 ± 0.1
level (log10) ([12]; 60000 nM): -0.0105 ± 0.0035
level (log10) ([13]; 6700 nM): -0.0015 ± 0.057
level (log10) ([13]; 20000 nM): 0.0385 ± 0.013
level (log10) ([13]; 60000 nM): 0.03 ± 0.037
level (log10) ([14]; 1500 nM): 0.098 ± 0.023
level (log10) ([14]; 4400 nM): 0.23 ± 0.037
level (log10) ([14]; 13000 nM): 0.316 ± 0.013
level (log10) ([14]; 40000 nM): 0.301 ± 0.021
level (log10) ([15]; 6700 nM): 0.0015 ± 0.019
level (log10) ([15]; 20000 nM): 0.0725 ± 0.03
level (log10) ([15]; 60000 nM): 0.0405 ± 0.036
level (log10) (Hexafluoroamylene glycol; 6700 nM): -0.0185 ± 0.021
level (log10) (Hexafluoroamylene glycol; 20000 nM): 0.0055 ± 0.025
level (log10) (Hexafluoroamylene glycol; 60000 nM): -0.008 ± 0.037
